Results: US12162872B2, “Cycloalkylurea derivative” (Sumitomo Pharma Co., Ltd., priority 2019, dated 2024)

molecular target: T1, Human orexin receptor type 2 (Homo sapiens, UniProt O43614); test: Test 2: Evaluation of agonist activity for orexin receptor type 2 (aequorin luminescence, intracellular calcium mobilization in CHO cells); format: cell-based; settings: relative percentage of luminescence for the luminescence (100%) of Orexin A (100 pM); CHO cells transiently expressing human orexin receptor type 2 and apoaequorin; Orexin A Lot. 671009
T1 construct: expressed in transfected cells; host or cells: CHO cells (transient expression)
T1 sequence (O43614 1-444): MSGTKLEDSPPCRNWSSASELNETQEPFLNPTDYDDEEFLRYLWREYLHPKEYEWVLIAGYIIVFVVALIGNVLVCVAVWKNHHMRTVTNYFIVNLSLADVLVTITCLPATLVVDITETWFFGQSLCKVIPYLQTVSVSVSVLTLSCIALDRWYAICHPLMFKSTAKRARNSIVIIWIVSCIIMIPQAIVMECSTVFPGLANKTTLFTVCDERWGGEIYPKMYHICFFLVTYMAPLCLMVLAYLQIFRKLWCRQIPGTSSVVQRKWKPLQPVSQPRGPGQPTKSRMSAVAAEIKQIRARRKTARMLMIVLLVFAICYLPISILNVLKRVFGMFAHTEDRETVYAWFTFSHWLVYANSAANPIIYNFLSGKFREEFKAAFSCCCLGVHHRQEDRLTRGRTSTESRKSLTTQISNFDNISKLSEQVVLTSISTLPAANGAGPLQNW
In short: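 CHO cells transiently co-expressing the receptor and apoaequorin, incubated 16–22 h, were loaded 2 h at room temperature with 1 μM coelenterazine hcp (final). Compounds in Hanks/20 mM HEPES/0.1% BSA (0.1% DMSO final) were added and the calcium luminescence was read and expressed as % of Orexin A (100 pM).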

| agonist activity (%) | SMILES |
| --- | --- |
| 410% | CCN(C)C1CCN([C@H]2CCCC(F)(F)[C@@H]2NC(=O)N2CCC(C)(c3noc([C@@H]4C[C@@H]4F)n3)CC2)CC1 [Example 160, N-[(1R,6S)-6-{4-[ethyl(methyl)amino]piperidin-1-yl}-2,2-difluorocyclohexyl]-4-{5-[(1S,2S)-2-fluorocyclopropyl]-1,2,4-oxadiazol-3-yl}-4-methylpiperidine-1-carboxamide] |
| 374% | CC(C)N1CC[C@H](N[C@H]2CCCC(F)(F)[C@@H]2NC(=O)N2CCC(C)(c3noc([C@@H]4C[C@@H]4F)n3)CC2)C1 [Example 161, N-[(1R,6S)-2,2-Difluoro-6-{[(3S)-1-(propan-2-yl)pyrrolidin-3-yl]amino}cyclohexyl]-4-{5-[(1S,2S)-2-fluorocyclopropyl]-1,2,4-oxadiazol-3-yl}-4-methylpiperidine-1-carboxamide] |

molecular target: T1, Human orexin receptor type 2; test: Test 1: Evaluation of agonist activity for orexin receptor type 2 (aequorin luminescence, intracellular calcium mobilization in CHO cells); format: cell-based; settings: relative percentage of luminescence for the luminescence (100%) of Orexin A (100 pM); CHO cells transiently expressing human orexin receptor type 2 and apoaequorin; Orexin A Lot. 641114
Procedure: Test 1: Evaluation of Agonist Activity for Orexin Receptor Type 2
Human orexin receptor type 2 and apoaequorin were transiently expressed in CHO cells, and the agonist activity was evaluated based on intracellular calcium mobilization with ligand stimulation. The CHO cells transiently-expressed human orexin receptor type 2 and apoaequorin were seeded on a 384-well plate by 2,000 cells/well, and then incubated for 16-22 hours. After the plate was returned to room temperature, Coelenterazine hcp (final concentration: 1 μM) was added to the plate, and the plate was allowed to stand at room temperature for 2 hours. And then, Orexin A (PEPTIDE INSTITUTE, INC., Lot. 641114) or each test compound was added to the plate, and the luminescence of the cells was measured with FDSS7000 (Hamamatsu Photonics K.K.), wherein Orexin A and each test compound were dissolved in DMSO (final concentration: 0.1%), and diluted with a buffer (Hanks, 20 mM HEPES, 0.1% BSA). The agonist activity of each test compound for orexin receptor type 2 was calculated as relative percentage of luminescence for the luminescence (100%) of Orexin A (100 pM).

| SMILES | agonist activity (%) |
| --- | --- |
| Cc1ccc(C2CCN(C(=O)N[C@H]3CCCC[C@@H]3N3CCN(C(C)C)CC3)CC2)cc1 (racemic) [Example 1, rac-4-(4-Methylphenyl)-N-{(1S,2S)-2-[4-(propan-2-yl)piperazin-1-yl]cyclohexyl}piperidine-1-carboxamide] | 137% |
| CCN1CCN([C@H]2CCCC[C@H]2NC(=O)N2CCC(c3ccc(C)cc3)CC2)CC1 (racemic) [Example 2, rac-N-[(1R,2S)-2-(4-ethylpiperazin-1-yl)cyclohexyl]-4-(4-methylphenyl)piperidine-1-carboxamide] | 58% |
| CO[C@H]1CCC[C@H](N2CCN(C(C)C)CC2)[C@H]1NC(=O)N1CCC(c2ccc(C)cc2)CC1 (racemic) [Example 4, rac-N-{(1R,2S,6S)-2-methoxy-6-[4-(propan-2-yl)piperazin-1-yl]cyclohexyl}-4-(4-methylphenyl)piperidine-1-carboxamide] | 62% |
| Cc1ccc(C2CCN(C(=O)N[C@H]3CCC[C@@H]3N3CCN(C(C)C)CC3)CC2)cc1 (racemic) [Example 5, rac-4-(4-methylphenyl)-N-{(1S,2S)-2-[4-(propan-2-yl)piperazin-1-yl]cyclopentyl}piperidine-1-carboxamide] | 103% |
| Cc1ccc(C2CCN(C(=O)N[C@@H]3[C@@H](N4CCN(C(C)C)CC4)CCCC3(F)F)CC2)cc1 (racemic) [Example 8, rac-N-{(1R,6S)-2,2-difluoro-6-[4-(propan-2-yl)piperazin-1-yl]cyclohexyl}-4-(4-methylphenyl)piperidine-1-carboxamide] | 207% |
| CC(C)N1CCN([C@H]2CCCC(F)(F)[C@@H]2OC(=O)N2CCC(C)(c3ncn(C4CC4)n3)CC2)CC1 (racemic) [Example 13, rac-(1R,6S)-2,2-difluoro-6-[4-(propan-2-yl)piperazin-1-yl]cyclohexyl 4-(1-cyclopropyl-1H-1,2,4-triazol-3-yl)-4-methylpiperidine-1-carboxylate] | 56% |
| CC(C)c1ccc(C2=CCCCC2NC(=O)N2CCC(C)(c3cc(C4CC4)on3)CC2)cn1 (racemic) [Example 15, rac-4-(5-cyclopropyl-1,2-oxazol-3-yl)-4-methyl-N-{2-[6-(propan-2-yl)pyridin-3-yl]cyclohex-2-en-1-yl}piperidine-1-carboxamide] | 62% |
| CC(C)c1ccc(C2=CCCCC2NC(=O)N2CCC(C)(c3noc(C4CC4)n3)CC2)cn1 (racemic) [Example 16, rac-4-(5-cyclopropyl-1,2,4-oxadiazol-3-yl)-4-methyl-N-{2-[6-(propan-2-yl)pyridin-3-yl]cyclohex-2-en-1-yl}piperidine-1-carboxamide] | 39% |
| CCN1CCN([C@H]2CCCC[C@@H]2NC(=O)N2CCC(c3ccc(C)cc3)CC2)CC1 (racemic) [Example 17, rac-N-[(1S,2S)-2-(4-Ethylpiperazin-1-yl)cyclohexyl]-4-(4-methylphenyl)piperidine-1-carboxamide] | 72% |
| CC(C)N1CC=C(C2=CCCCC2NC(=O)N2CCC(C)(c3noc(C4CC4)n3)CC2)CC1 (racemic) [Example 18, rac-4-(5-Cyclopropyl-1,2,4-oxadiazol-3-yl)-4-methyl-N-{2-[1-(propan-2-yl)-1,2,3,6-tetrahydropyridin-4-yl]cyclohex-2-en-1-yl}piperidine-1-carboxamide] | 73% |

Second part, the compound after the results:

| agonist activity (%) | SMILES |
| --- | --- |
| 67% | Cc1nc(C2(C)CCN(C(=O)N[C@H]3CCCC[C@@H]3N3CCN(C(C)C)CC3)CC2)no1 (racemic) [Example 3, rac-4-methyl-4-(5-methyl-1,2,4-oxadiazol-3-yl)-N-{(1S,2S)-2-[4-(propan-2-yl)piperazin-1-yl]cyclohexyl}piperidine-1-carboxamide] |
| 43% | CC(C)N1CCN([C@H]2CCC[C@@H]2NC(=O)N2CCC(C)(c3cc(C4CC4)on3)CC2)CC1 (racemic) [Example 6, rac-4-(5-cyclopropyl-1,2-oxazol-3-yl)-4-methyl-N-{(1S,2S)-2-[4-(propan-2-yl)piperazin-1-yl]cyclopentyl}piperidine-1-carboxamide] |
| 75% | CC(C)N1CCN([C@H]2[C@H](NC(=O)N3CCC(C)(c4noc(C5CC5)n4)CC3)CCCC2(F)F)CC1 (racemic) [Example 7, rac-4-(5-cyclopropyl-1,2,4-oxadiazol-3-yl)-N-{(1R,2S)-3,3-difluoro-2-[4-(propan-2-yl)piperazin-1-yl]cyclohexyl}-4-methylpiperidine-1-carboxamide] |
| 207% | CC(C)N1CCN([C@H]2CCCC(F)(F)[C@@H]2OC(=O)N2CCC(C)(c3noc(C4CC4)n3)CC2)CC1 (racemic) [Example 9, rac-(1R,6S)-2,2-difluoro-6-[4-(propan-2-yl)piperazin-1-yl]cyclohexyl 4-(5-cyclopropyl-1,2,4-oxadiazol-3-yl)-4-methylpiperidine-1-carboxylate] |
| 213% | Cc1nc(C2(C)CCN(C(=O)O[C@@H]3[C@@H](N4CCN(C(C)C)CC4)CCCC3(F)F)CC2)no1 (racemic) [Example 10, rac-(1R,6S)-2,2-difluoro-6-[4-(propan-2-yl)piperazin-1-yl]cyclohexyl 4-methyl-4-(5-methyl-1,2,4-oxadiazol-3-yl)piperidine-1-carboxylate] |
| 211% | CC(C)N1CCN([C@H]2CCCC(F)(F)[C@@H]2OC(=O)N2CCC(C)(c3cc(C4CC4)on3)CC2)CC1 (racemic) [Example 11, rac-(1R,6S)-2,2-difluoro-6-[4-(propan-2-yl)piperazin-1-yl]cyclohexyl 4-(5-cyclopropyl-1,2-oxazol-3-yl)-4-methylpiperidine-1-carboxylate] |
| 167% | CC(C)N1CCN([C@H]2CCCC(F)(F)[C@@H]2NC(=O)N2CCC(C)(c3noc(C4CC4)n3)CC2)CC1 (racemic) [Example 19, rac-4-(5-Cyclopropyl-1,2,4-oxadiazol-3-yl)-N-{(1R,6S)-2,2-difluoro-6-[4-(propan-2-yl)piperazin-1-yl]cyclohexyl}-4-methylpiperidine-1-carboxamide] |
| 160% | CC(C)N1CCN([C@H]2CCCC(F)(F)[C@@H]2NC(=O)N2CCC(C)(c3cc(C4CC4)on3)CC2)CC1 (racemic) [Example 20, rac-4-(5-cyclopropyl-1,2-oxazol-3-yl)-N-{(1R,6S)-2,2-difluoro-6-[4-(propan-2-yl)piperazin-1-yl]cyclohexyl}-4-methylpiperidine-1-carboxamide] |
